Laboratory results published in ChEMBL document CHEMBL1201862, “PubChem BioAssay data set” (2004).
“And” between values parts separate entries of the source, which are not always exact repeats. Equal entries are not always repeated. The source made the active and inactive calls.

Columns and labels:
[1] = molecular target: Cytochrome P450 2C19 (Homo sapiens, UniProt P33261); assay: Cytochrome panel assay with activity outcomes. Panel member name: p450-cyp2c19 Compounds with AC50 equal or less than 10 uM are considered active; assay type: functional
Chain of Cytochrome P450 2C19 (P33261 whole entry): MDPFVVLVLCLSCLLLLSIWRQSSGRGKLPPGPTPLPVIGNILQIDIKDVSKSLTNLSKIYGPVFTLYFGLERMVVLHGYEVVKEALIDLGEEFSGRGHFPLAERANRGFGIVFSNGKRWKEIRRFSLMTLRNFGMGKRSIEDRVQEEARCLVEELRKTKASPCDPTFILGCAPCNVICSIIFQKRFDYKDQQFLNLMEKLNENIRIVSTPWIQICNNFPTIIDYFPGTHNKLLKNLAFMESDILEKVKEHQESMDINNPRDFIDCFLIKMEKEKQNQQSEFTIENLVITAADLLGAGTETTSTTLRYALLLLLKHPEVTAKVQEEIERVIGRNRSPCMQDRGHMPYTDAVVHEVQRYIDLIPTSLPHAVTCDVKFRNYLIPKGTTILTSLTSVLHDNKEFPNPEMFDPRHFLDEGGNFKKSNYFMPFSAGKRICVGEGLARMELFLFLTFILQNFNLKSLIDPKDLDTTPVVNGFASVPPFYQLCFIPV

[2] = molecular target: T1, Cytochrome P450 1A2 (Homo sapiens, UniProt P05177)
T1 sequence (P05177 whole entry): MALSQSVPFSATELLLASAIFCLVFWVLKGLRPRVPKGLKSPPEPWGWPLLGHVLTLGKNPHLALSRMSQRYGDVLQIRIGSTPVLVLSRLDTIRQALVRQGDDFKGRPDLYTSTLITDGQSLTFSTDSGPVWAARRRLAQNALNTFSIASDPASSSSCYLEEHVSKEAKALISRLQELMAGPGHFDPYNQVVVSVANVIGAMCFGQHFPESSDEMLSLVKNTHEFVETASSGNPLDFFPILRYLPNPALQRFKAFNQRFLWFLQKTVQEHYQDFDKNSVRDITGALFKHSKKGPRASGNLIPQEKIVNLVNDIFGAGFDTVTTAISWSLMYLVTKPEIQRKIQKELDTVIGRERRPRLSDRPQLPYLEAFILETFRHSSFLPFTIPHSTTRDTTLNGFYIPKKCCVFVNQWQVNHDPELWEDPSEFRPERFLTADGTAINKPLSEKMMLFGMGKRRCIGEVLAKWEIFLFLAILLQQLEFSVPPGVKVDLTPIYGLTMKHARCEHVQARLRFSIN

[3] = cytotoxicity toward NIH3T3 fibroblasts, dose response, counter-screen, cell-based, ATP luminescence, mouse fibroblasts (AID 2010); assay type: functional;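 note: cells exposed to compound for about 90 hours before reading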
[4] = inhibitors of intracellular T. cruzi replication, confirmation, NIH3T3 host cells, beta-gal luminescence (AID 2044); assay type: functional, cell-based;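 note: intracellular parasites grown in NIH/3T3 mouse fibroblasts as host cells; luminescent beta-galactosidase reporter signal from transgenic T. cruzi replicating inside host cells; inhibitors lower the luminescence signal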
[5] = molecular target: Cytochrome P450 2C9 (Homo sapiens, UniProt P11712)
Chain of Cytochrome P450 2C9 (P11712 whole entry): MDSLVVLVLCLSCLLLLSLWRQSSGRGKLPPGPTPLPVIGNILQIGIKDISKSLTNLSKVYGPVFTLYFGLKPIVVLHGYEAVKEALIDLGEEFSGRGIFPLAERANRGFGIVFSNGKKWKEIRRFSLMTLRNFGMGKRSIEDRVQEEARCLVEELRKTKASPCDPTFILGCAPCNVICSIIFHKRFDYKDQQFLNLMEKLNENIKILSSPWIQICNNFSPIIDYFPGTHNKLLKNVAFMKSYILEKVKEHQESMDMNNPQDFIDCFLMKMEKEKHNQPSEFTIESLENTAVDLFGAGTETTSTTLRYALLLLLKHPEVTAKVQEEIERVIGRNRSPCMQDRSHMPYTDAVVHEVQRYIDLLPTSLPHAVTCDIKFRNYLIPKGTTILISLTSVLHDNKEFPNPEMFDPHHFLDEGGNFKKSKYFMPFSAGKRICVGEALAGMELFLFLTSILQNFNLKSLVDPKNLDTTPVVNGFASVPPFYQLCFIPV

[6] = molecular target: Cytochrome P450 3A4 (Homo sapiens, UniProt P08684);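 note: CYP3A4 tested as one member of a cytochrome P450 panel screen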
Chain of Cytochrome P450 3A4 (P08684 whole entry): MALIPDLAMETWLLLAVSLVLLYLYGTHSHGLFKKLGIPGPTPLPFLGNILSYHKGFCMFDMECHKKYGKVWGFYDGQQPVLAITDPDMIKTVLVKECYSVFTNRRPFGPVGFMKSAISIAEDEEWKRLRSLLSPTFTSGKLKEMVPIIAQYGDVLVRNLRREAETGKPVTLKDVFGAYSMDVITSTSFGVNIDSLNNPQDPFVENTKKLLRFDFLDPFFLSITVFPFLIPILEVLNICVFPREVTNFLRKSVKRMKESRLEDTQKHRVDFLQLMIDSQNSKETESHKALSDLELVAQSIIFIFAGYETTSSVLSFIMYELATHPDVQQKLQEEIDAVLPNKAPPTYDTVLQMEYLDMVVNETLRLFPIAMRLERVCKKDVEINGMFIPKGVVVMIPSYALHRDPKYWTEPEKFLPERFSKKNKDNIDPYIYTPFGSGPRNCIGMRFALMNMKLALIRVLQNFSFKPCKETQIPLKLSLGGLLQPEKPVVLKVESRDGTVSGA

[7] = Luminescence Cell-Based Dose Retest to Confirm Inhibitors of Cancer Stem Cells. [Related pubchem assays (depositor defined):AID2717, AID2721]; assay type: functional; conditions: Homo sapiens
[8] = tested on: Streptococcus sp. 'group A'; assay: growth inhibition of control SK(-) GAS strain, dose response, counter-screen for streptokinase expression inhibitor project, luminescence, kanamycin, BacTiterGlo, confirmation (AID 1900); assay type: functional, organism-based
[9] = tested on: Streptococcus; assay: Group A Streptococcus viability loss, dose response, counter-screen for streptokinase expression inhibitor project, luminescence, BacTiterGlo (AID 1915); assay type: functional, organism-based;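 note: potency for reduction of bacterial viability or growth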

CCCc1nnc(NC(=O)C(CC)OC(=O)c2cc(C)nc3ccccc23)s1 (centres undefined)
AC50 ([1]; read-out: AC50): 15.8 µM (inconclusive) | AC50 [2]: 15.8 µM (inconclusive)

CCOCCCNCc1ccc(OCCC(C)C)c(OC)c1
EC50 [3]: > 60 µM (not active) | EC50 [4]: 0.17 µM (active)

CN(C)CCCNC(=O)CCc1nc(O)c2ccccc2n1
AC50 ([1]; read-out: AC50): 7.08 µM (inconclusive) | AC50 [5]: 1 µM (inconclusive)

COc1ccccc1CN1CCCC2(CCN(C(=O)c3cccn3C)CC2)C1
AC50 [6]: 20 µM (inconclusive)

CCn1c2ccccc2c2cc(/N=C3/SC(CC(=O)Nc4ccccc4OC)C(=O)N3C)ccc21 (centres undefined)
AC50 [6]: 2.82 µM (inconclusive)

O=c1c(-c2cc(F)cc(F)c2)nc2cncnc2n1-c1ccccc1
AC50 ([1]; read-out: AC50): 6.31 µM (inconclusive) | AC50 [5]: 10 µM (inconclusive)

Cc1cc(NC(=O)CCC(=O)N(CC2CCCO2)C(C(=O)NC2CCCC2)c2cccnc2)no1 (centres undefined)
AC50 [6]: 1.41 µM (inconclusive) | AC50 [5]: 17.8 µM (inconclusive)

COC(=O)c1c(-c2cc(OC)c(OC)c(OC)c2)c2ccc(OCc3ccccn3)cc2c(=O)n1-c1ccc(N)cc1
AC50 ([1]; read-out: AC50): 10 µM (inconclusive)

CO[C@@H]1COC(=O)C/C=C\[C@@H](C)[C@H](OC)COC(=O)[C@H](COCc2ccccc2)NC(=O)C/C=C\[C@H]1C
AC50 ([1]; read-out: AC50): 2 µM (inconclusive) | AC50 [6]: 5.01 µM (inconclusive)

CC(=O)Nc1ccc(OCC(O)Cn2c3ccccc3c3ccccc32)c(C)c1 (centres undefined)
EC50 [3]: 9.57 µM (active) | EC50 [4]: 2.11 µM (active)

c1ccc(CNc2ncncc2-c2ccoc2)cc1
AC50 [5]: 0.501 µM (inconclusive)

COc1ccccc1N1CCN(C[C@@H](O)COc2cccc3ccccc23)CC1
AC50 [2]: 12.6 µM (inconclusive) and 31.6 µM (inconclusive) and 20 µM (inconclusive)

CN1CCN(c2ncncc2-c2ccccc2Cl)CC1
AC50 [2]: 2.51 µM (inconclusive)

COc1cccc(-c2sc3ccc(OC)cc3c2-c2ccc(O)cc2)c1
AC50 [7]: 2.67 µM (active)

COc1ccccc1-c1nc(NCc2ccccc2)c2ccccc2n1
AC50 ([1]; read-out: AC50): 25.1 µM (inconclusive)

CC12CN3CC(C)(CN(C1)C3c1ccc([N+](=O)[O-])o1)C2=O (centres undefined)
EC50 [3]: > 60 µM (not active) | EC50 [4]: 0.784 µM (active)

Fc1ccc(CSc2nnc(-c3cc4c(s3)-c3ccccc3CC4)o2)cc1
AC50 [1]: inconclusive | AC50 [6]: 15.8 µM (inconclusive)

CCN1CCN(c2ccc(S(=O)(=O)N3CCCCC3)cc2NC(=O)c2cc3ccccc3o2)CC1
EC50 [3]: > 30 µM (not active) | EC50 [4]: 0.31 µM (active)

CN(C)CCCN(C(=O)/C=C/c1cccs1)c1nc2c(F)cccc2s1
EC50 [3]: > 60 µM (not active) | EC50 [4]: 1.86 µM (active)

CCOc1nc(NC(C)C)nc(NC(C)C)n1
AC50 [2]: 5.01 µM (inconclusive)

COc1ccc(NS(=O)(=O)c2cccc(C(=O)NC3CCN(Cc4ccccc4)CC3)c2)cc1
EC50 [3]: > 30 µM (not active) | EC50 [4]: 0.318 µM (active)

Cc1cc(C)cc(Oc2nn[nH]n2)c1
AC50 [5]: 7.08 µM (inconclusive)

O=C(NC1CCN(Cc2ccccc2)CC1)c1ccc(Cn2c(=S)[nH]c3ccc(N4CCOCC4)cc3c2=O)cc1
EC50 [3]: 10.4 µM (active) | EC50 [4]: 1.3 µM (active)

N#CCCn1c(=O)cnc2cnc(OCc3ccccc3)nc21
AC50 [1]: inconclusive

COC(=O)N1CC(=O)N(OC)C1c1ccc(Cl)cc1Cl (centres undefined)
AC50 [5]: 0.316 µM (inconclusive)

Cc1ccc(C2C(=O)N(C3CCCC3)CC(=O)N2CC2COc3ccccc3O2)cc1 (centres undefined)
AC50 [2]: 39.8 µM (inconclusive)

CN1C(=O)C(C2c3ccccc3C(=O)N2Cc2ccc([N+](=O)[O-])cc2)C(=O)N(C)C1=O (centres undefined)
AC50 ([1]; read-out: AC50): 14.1 µM (inconclusive)

COc1ccc(-n2c(=O)c(CCc3ccccc3)nc3cnc(N(C)C)nc32)cc1
AC50 [6]: 3.16 µM (inconclusive) | AC50 [2]: 3.16 µM (inconclusive)

N#Cc1cccc(-c2ccc3ncnc(NC4CCNCC4)c3c2)c1
AC50 ([1]; read-out: AC50): 25.1 µM (inconclusive)

N#CCCn1c(=O)cnc2cnc(N3CCOCC3)nc21
AC50 [1]: inconclusive

COc1ccc(C)cc1NC(=O)c1ccc([N+](=O)[O-])cc1[N+](=O)[O-]
EC50 [3]: > 60 µM (not active) | EC50 [4]: 1.18 µM (active)

CCn1c(-c2ccccc2)cnc1S
EC50 [8]: > 150 µM (not active) | EC50 [9]: > 150 µM (not active)

Cc1ccc(CNC(=O)[C@H]2C[C@@H]2[C@H](NP(=O)(c2ccccc2)c2ccccc2)c2ccccc2)c(F)c1F
AC50 ([1]; read-out: AC50): 0.0398 µM (inconclusive)
